Measured values taken from ChEMBL document CHEMBL4184197 (Bioorg Med Chem, 2018).

Columns and labels:
[1] = molecular target: Calcitonin gene-related peptide type 1 receptor (Homo sapiens) (UniProt Q16602); assay: Binding affinity to recombinant human CGRP at 10 uM after 90 mins by scintillation counting analysis relative to control
[2] = molecular target: Substance-K receptor (Homo sapiens) (UniProt P21452); assay: Binding affinity to recombinant human NK2 receptor at 10 uM after 60 mins by scintillation counting analysis relative to control
Sequence of Substance-K receptor (Homo sapiens) (P21452 whole entry): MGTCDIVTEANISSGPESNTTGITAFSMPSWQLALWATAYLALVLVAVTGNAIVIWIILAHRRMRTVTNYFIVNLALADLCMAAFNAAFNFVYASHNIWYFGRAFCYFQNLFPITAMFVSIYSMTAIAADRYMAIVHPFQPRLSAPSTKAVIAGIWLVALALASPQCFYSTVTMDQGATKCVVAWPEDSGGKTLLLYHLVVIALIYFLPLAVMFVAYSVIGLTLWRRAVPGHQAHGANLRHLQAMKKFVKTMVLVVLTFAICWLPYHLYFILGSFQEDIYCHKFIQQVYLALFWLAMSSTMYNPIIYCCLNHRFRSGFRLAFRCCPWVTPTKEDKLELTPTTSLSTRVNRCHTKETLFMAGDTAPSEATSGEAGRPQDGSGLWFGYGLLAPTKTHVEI

[3] = molecular target: Translocator protein (Homo sapiens) (UniProt P30536); assay: Binding affinity to peripheral-type benzodiazepine receptor (unknown origin) at 10 uM relative to control
[4] = molecular target: Nociceptin receptor (Homo sapiens) (UniProt P41146); assay: Binding affinity to recombinant human NOP receptor at 10 uM after 60 mins by scintillation counting analysis relative to control
[5] = molecular target: M-phase inducer phosphatase 1 (Homo sapiens) (UniProt P30304); assay: Binding affinity to recombinant human phosphatase CDC25A at 10 uM after 20 mins by fluorescence assay relative to control
Sequence of M-phase inducer phosphatase 1 (Homo sapiens) (P30304 whole entry): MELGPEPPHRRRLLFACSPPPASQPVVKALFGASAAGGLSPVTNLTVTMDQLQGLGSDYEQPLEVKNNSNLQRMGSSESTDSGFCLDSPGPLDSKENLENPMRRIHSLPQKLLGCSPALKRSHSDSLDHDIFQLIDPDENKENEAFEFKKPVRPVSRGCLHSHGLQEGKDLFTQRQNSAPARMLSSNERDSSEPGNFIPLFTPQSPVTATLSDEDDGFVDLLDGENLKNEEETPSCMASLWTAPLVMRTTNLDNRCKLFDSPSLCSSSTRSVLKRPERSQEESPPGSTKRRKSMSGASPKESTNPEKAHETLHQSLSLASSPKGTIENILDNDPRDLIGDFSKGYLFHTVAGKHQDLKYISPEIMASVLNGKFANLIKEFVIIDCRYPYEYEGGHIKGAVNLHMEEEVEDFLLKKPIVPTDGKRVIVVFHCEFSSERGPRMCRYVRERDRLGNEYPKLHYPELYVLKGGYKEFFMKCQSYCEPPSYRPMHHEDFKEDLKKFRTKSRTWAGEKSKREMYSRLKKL

[6] = test system: Voltage-gated potassium channel; assay: Binding affinity to voltage-gated potassium channel (unknown origin) at 10 uM relative to control; type: protein assay; conditions: human
Homo sapiens [7] = species on record: Homo sapiens; assay: Binding affinity to P2X receptor (unknown origin) at 10 uM relative to control
[8] = molecular target: 5-hydroxytryptamine receptor 6 (Homo sapiens) (UniProt P50406); assay: Binding affinity to recombinant human 5-HT6 receptor at 10 uM after 120 mins by scintillation counting analysis relative to control
Sequence of 5-hydroxytryptamine receptor 6 (Homo sapiens) (P50406 whole entry): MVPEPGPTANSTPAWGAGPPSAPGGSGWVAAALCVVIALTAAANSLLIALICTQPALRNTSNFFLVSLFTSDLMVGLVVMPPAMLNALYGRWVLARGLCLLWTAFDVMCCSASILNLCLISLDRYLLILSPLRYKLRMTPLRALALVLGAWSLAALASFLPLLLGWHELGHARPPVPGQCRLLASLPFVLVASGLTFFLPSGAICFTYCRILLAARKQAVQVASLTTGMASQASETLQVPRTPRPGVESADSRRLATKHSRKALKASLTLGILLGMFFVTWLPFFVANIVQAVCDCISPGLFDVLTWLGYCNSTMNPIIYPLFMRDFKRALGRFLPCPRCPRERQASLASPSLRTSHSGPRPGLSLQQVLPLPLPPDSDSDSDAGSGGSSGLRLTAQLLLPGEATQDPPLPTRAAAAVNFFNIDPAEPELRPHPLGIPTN

[9] = molecular target: Mu-type opioid receptor (Homo sapiens) (UniProt P35372); assay: Binding affinity to recombinant human mu opioid receptor at 10 uM after 120 mins by scintillation counting analysis relative to control
[10] = molecular target: Beta-1 adrenergic receptor (Homo sapiens) (UniProt P08588); assay: Binding affinity to recombinant human beta1 receptor at 10 uM after 60 mins by scintillation counting analysis relative to control
Sequence of Beta-1 adrenergic receptor (Homo sapiens) (P08588 whole entry, looked up): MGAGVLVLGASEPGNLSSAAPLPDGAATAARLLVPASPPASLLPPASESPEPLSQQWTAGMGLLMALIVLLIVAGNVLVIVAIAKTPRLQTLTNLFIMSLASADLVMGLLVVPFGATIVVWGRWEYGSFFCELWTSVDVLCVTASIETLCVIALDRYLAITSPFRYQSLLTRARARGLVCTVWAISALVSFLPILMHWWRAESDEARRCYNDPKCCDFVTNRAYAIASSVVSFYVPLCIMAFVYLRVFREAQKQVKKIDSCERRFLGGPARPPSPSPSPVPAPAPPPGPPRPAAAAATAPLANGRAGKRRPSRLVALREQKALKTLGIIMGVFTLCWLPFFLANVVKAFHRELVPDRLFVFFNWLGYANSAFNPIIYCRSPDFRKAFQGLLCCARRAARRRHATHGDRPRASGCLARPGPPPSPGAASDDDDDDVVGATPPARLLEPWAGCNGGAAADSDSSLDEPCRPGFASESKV

[11] = molecular target: D(1A) dopamine receptor (Homo sapiens) (UniProt P21728); assay: Binding affinity to recombinant human dopamine receptor D1 at 10 uM after 60 mins by scintillation counting analysis relative to control
[12] = molecular target: Stromelysin-1 (Homo sapiens) (UniProt P08254); assay: Binding affinity to human MMP3 at 10 uM after 30 mins by fluorescence assay relative to control
[13] = molecular target: Neurotensin receptor type 1 (Homo sapiens) (UniProt P30989); assay: Binding affinity to recombinant human NT1 receptor at 10 uM after 60 mins by scintillation counting analysis relative to control
Sequence of Neurotensin receptor type 1 (Homo sapiens) (P30989 whole entry): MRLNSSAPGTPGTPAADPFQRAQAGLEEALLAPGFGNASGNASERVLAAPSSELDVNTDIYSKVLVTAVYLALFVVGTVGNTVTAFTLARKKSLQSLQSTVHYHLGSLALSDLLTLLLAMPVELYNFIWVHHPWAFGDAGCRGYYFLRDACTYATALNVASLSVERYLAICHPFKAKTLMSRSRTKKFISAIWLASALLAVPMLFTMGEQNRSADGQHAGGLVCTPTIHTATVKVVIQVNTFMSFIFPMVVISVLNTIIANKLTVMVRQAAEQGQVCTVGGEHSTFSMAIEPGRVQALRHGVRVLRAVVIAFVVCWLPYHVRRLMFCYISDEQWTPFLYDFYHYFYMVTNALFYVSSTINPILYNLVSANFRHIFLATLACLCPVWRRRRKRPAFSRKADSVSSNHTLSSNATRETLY

[14] = molecular target: Muscarinic acetylcholine receptor M1 (Homo sapiens) (UniProt P11229); assay: Binding affinity to recombinant human muscarinic M1 receptor at 10 uM after 60 mins by scintillation counting analysis relative to control
[15] = molecular target: cGMP-inhibited 3',5'-cyclic phosphodiesterase 3A (Homo sapiens) (UniProt Q14432); assay: Binding affinity to recombinant human PDE3A at 10 uM after 20 mins by scintillation counting analysis relative to control
Sequence of cGMP-inhibited 3',5'-cyclic phosphodiesterase 3A (Homo sapiens) (Q14432 whole entry): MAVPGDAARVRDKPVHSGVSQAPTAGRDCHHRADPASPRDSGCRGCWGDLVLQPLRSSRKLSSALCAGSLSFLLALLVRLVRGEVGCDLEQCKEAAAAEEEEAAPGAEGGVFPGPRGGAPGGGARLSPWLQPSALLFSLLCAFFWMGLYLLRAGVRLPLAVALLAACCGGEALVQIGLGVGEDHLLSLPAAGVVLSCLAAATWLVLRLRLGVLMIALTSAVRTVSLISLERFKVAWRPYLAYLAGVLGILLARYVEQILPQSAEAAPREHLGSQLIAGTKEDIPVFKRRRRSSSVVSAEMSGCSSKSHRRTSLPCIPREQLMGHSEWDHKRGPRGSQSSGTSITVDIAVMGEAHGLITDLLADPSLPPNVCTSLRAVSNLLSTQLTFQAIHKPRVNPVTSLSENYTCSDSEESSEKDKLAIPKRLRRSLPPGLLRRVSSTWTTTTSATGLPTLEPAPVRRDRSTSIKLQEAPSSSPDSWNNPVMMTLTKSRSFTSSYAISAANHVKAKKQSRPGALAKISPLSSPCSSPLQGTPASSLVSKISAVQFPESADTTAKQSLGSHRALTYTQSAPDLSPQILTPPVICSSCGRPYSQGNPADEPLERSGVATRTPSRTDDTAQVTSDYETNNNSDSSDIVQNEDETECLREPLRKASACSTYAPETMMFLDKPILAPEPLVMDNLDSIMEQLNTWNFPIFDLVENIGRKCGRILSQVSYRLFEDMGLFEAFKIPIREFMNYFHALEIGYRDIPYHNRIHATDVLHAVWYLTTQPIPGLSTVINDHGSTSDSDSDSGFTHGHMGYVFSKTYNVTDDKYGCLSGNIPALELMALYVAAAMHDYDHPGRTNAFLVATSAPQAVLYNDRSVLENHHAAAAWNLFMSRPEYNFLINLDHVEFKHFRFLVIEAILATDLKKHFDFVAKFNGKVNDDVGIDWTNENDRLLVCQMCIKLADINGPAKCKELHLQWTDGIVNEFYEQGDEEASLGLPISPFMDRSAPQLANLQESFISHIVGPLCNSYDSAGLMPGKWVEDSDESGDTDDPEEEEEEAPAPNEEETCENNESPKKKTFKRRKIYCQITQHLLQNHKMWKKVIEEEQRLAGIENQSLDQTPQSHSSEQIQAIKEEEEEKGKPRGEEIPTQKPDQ

[16] = molecular target: 5-hydroxytryptamine receptor 7 (Homo sapiens) (UniProt P34969); assay: Binding affinity to recombinant human 5-HT7 receptor at 10 uM after 120 mins by scintillation counting analysis relative to control
[17] = molecular target: 5-hydroxytryptamine receptor 1B (Homo sapiens) (UniProt P28222); assay: Binding affinity to recombinant human full length 5-HT1B receptor at 10 uM after 90 mins by scintillation counting analysis relative to control
Homo sapiens [18] = species on record: Homo sapiens; assay: Binding affinity to bombesin receptor (unknown origin) at 10 uM relative to control
[19] = molecular target: Prostaglandin E2 receptor EP4 subtype (Homo sapiens) (UniProt P35408); assay: Binding affinity to recombinant human EP4 receptor at 10 uM after 120 mins by scintillation counting analysis relative to control
Salmonella typhimurium [20] = assay: Mutagenicity in Salmonella typhimurium TA100 in presence of rat liver S9 fraction by Ames test; type: toxicity, organism-based; conditions: salmonella enterica subsp. enterica serovar typhimurium
[21] = molecular target: Adenosine receptor A1 (Homo sapiens) (UniProt P30542); assay: Binding affinity to recombinant human A1 receptor at 10 uM after 60 mins by scintillation counting analysis relative to control
[22] = molecular target: 5-hydroxytryptamine receptor 2C (Homo sapiens) (UniProt P28335); assay: Binding affinity to recombinant human 5-HT2C receptor at 10 uM after 60 mins by scintillation counting analysis relative to control
[23] = molecular target: Cathepsin D (Homo sapiens) (UniProt P07339); assay: Binding affinity to human cathepsin D at 10 uM after 30 mins by fluorescence assay relative to control
Sequence of Cathepsin D (Homo sapiens) (P07339 65-162 limits assumed): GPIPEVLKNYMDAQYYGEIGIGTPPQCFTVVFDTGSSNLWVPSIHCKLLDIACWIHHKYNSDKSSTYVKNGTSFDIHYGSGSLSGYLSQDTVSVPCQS
Sequence of Cathepsin D (Homo sapiens) (P07339 169-412 limits assumed): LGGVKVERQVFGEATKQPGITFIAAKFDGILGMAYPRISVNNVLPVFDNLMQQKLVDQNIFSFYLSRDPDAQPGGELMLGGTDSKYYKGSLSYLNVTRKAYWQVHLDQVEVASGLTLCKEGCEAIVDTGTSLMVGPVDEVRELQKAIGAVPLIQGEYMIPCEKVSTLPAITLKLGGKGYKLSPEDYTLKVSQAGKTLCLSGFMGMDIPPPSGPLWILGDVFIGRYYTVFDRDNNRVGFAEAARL

Salmonella typhimurium [24] = assay: Mutagenicity in Salmonella typhimurium TA98 in presence of rat liver S9 fraction by Ames test; type: toxicity, organism-based; conditions: salmonella enterica subsp. enterica serovar typhimurium
Caspase-8 (Homo sapiens) = Caspase-8 (Homo sapiens) (UniProt Q14790); assay: Binding affinity to recombinant human caspase 8 at 10 uM after 45 mins by fluorescence assay relative to control
[25] = molecular target: Gastrin/cholecystokinin type B receptor (Homo sapiens) (UniProt P32239); assay: Binding affinity to recombinant human CCK2 at 10 uM after 60 mins by scintillation counting analysis relative to control
[26] = molecular target: Nitric oxide synthase, inducible (Mus musculus) (UniProt P29477); assay: Binding affinity to recombinant mouse iNOS at 10 uM after 120 mins by spectrophotometric analysis relative to control
Homo sapiens [27] = species on record: Homo sapiens; assay: Binding affinity to human sigma receptor at 10 uM after 120 mins by scintillation counting analysis relative to control
[28] = molecular target: Muscarinic acetylcholine receptor M5 (Homo sapiens) (UniProt P08912); assay: Binding affinity to recombinant human muscarinic M5 receptor at 10 uM after 60 mins by scintillation counting analysis relative to control
[29] = molecular target: cGMP-dependent 3',5'-cyclic phosphodiesterase (Homo sapiens) (UniProt O00408); assay: Binding affinity to recombinant human PDE2A1 at 10 uM after 20 mins by scintillation counting analysis relative to control
[30] = molecular target: Endothelin receptor type B (Homo sapiens) (UniProt P24530); assay: Binding affinity to recombinant human ETB receptor at 10 uM after 120 mins by scintillation counting analysis relative to control
[31] = molecular target: Galanin receptor type 1 (Homo sapiens) (UniProt P47211); assay: Binding affinity to recombinant human GAL1 receptor at 10 uM after 120 mins by scintillation counting analysis relative to control
[32] = molecular target: Angiotensin-converting enzyme 2 (Homo sapiens) (UniProt Q9BYF1); assay: Binding affinity to recombinant human ACE-2 at 10 uM after 20 mins by fluorescence assay relative to control
[33] = molecular target: Sodium-dependent serotonin transporter (Homo sapiens) (UniProt P31645); assay: Binding affinity to 5-HT transporter (unknown origin) at 10 uM relative to control
Sequence of Sodium-dependent serotonin transporter (Homo sapiens) (P31645 whole entry, looked up): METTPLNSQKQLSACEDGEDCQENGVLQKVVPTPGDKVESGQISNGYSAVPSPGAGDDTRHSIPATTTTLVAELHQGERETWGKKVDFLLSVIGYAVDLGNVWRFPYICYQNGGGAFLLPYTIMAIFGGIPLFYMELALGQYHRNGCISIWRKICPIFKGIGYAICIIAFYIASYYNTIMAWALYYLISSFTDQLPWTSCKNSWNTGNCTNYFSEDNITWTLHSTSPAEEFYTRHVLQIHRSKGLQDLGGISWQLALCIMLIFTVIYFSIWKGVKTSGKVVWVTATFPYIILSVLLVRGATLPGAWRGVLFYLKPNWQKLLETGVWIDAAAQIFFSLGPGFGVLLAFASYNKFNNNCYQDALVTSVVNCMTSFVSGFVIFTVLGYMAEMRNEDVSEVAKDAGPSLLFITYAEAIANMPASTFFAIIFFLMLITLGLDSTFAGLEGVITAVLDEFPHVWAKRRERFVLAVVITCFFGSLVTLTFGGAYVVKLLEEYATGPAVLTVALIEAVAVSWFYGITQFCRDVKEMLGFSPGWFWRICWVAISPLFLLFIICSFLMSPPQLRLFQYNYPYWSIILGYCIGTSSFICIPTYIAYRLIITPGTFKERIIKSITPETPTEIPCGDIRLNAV

[34] = molecular target: 3',5'-cyclic-AMP phosphodiesterase 4D (Homo sapiens) (UniProt Q08499); assay: Binding affinity to recombinant human PDE4D2 at 10 uM after 20 mins by scintillation counting analysis relative to control
[35] = molecular target: 3-hydroxy-3-methylglutaryl-coenzyme A reductase (Homo sapiens) (UniProt P04035); assay: Binding affinity to HMG-CoA reductase (unknown origin) at 10 uM by relative to control

Sequence of Calcitonin gene-related peptide type 1 receptor (Homo sapiens) (Q16602 whole entry): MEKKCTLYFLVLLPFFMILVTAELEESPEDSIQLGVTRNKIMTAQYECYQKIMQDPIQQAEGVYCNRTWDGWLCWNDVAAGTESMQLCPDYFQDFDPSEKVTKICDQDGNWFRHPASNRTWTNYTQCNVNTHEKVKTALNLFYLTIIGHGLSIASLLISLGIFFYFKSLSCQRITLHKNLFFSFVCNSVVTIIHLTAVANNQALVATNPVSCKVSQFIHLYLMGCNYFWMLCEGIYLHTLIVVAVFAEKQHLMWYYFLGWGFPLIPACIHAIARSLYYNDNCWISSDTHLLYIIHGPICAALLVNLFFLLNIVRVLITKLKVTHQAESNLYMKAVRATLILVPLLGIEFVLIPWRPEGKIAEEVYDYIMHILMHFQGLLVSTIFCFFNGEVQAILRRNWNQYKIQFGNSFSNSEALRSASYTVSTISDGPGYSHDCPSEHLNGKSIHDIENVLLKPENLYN

CCOc1c(Cl)cc(C(=O)Nc2ccc(C(=O)O)c(C)c2)cc1OC(C)C
Activity [1]: < 25%
Activity [2]: < 25%
Activity [3]: < 25%
Activity [4]: < 25%
Activity [5]: < 25%
Activity [6]: <= 25%
Activity (Homo sapiens [7]): < 25%
Activity [8]: < 25%
Activity [9]: < 25%
Activity [10]: < 25%
Activity [11]: < 25%
Activity [12]: < 25%
Activity [13]: < 25%
Activity [14]: < 25%
Activity [15]: < 25%
Activity [16]: < 25%
Activity [17]: < 25%
Activity (Homo sapiens [18]): < 25%
Activity [19]: < 25%
Activity (Salmonella typhimurium [20]): Non-Toxic
Activity [21]: < 25%
Activity [22]: < 25%
Activity [23]: < 25%
Activity (Salmonella typhimurium [24]): Non-Toxic
Activity (Caspase-8 (Homo sapiens)): < 25%
Activity [25]: < 25%
Activity [26]: < 25%
Activity (Homo sapiens [27]): < 25%
Activity [28]: < 25%
Activity [29]: < 25%
Activity [30]: < 25%
Activity [31]: < 25%
Activity [32]: < 25%
Activity [33]: < 25%
Activity [34]: < 25%
Activity [35]: < 25%
